According to publication PMC9967275, “Screening the Pathogen Box to Discover and Characterize New Cruzain and TbrCatL Inhibitors” (Pathogens, 2023):
Like-named read-outs stand apart in the source and are kept apart here.

Tests used:
cruzain = cruzain (Trypanosoma cruzi, UniProt P25779); experiment: biochemical; conditions: for Cruzain Inhibition 0’: 0’ (no pre-incubation); for Cruzain Inhibition 0’ / Cruzain Inhibition 10’: sheet Screening results; for Cruzain Inhibition 10’: 10’ (pre-incubation); for Cruzain 0’ Inhibition: 0’ (pre-incubation time); for Cruzain 10’ Inhibition: 10’ (pre-incubation time);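 for Cruzain 0’ Inhibition: at 5 µM compound concentration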;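 for Cruzain 10’ Inhibition: at 5 µM compound concentration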;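 for Cruzain Inhibition 0’: at 5 µM compound concentration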;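 for Cruzain Inhibition 10’: at 5 µM compound concentration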
cruzain, sequence (P25779 123-337 limits assumed): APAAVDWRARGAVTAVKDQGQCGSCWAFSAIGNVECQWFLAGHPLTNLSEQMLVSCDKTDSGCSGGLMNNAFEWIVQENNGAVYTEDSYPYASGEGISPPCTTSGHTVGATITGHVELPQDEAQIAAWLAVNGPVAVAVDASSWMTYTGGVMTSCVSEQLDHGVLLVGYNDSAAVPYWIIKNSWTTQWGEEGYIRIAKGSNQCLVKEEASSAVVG
Procedure, shortened: (§1)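 Recombinant enzymes assayed by Z-Phe-Arg-AMC cleavage at 25 °C, fluorescence 340/440 nm over 5–7 min, with 10 min or no enzyme–compound preincubation.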

TbrCatL = molecular target: T1, TbrCatL (Trypanosoma brucei rhodesiense, UniProt Q95PM0); experiment: TbrCatL enzymatic inhibition assay (cleavage of fluorogenic substrate Z-FR-AMC); type: biochemical; conditions: for TbrCatL Inhibition 0’: 0’ (no pre-incubation); for TbrCatL Inhibition 0’ / TbrCatL Inhibition 10’: sheet Screening results; for TbrCatL Inhibition 10’: 10’ (pre-incubation); for TbrCatL 0’ Inhibition: 0’ (pre-incubation time); for TbrCatL 0’ Inhibition / TbrCatL 10’ Inhibition: sheet "Screening results"; for TbrCatL 10’ Inhibition: 10’ (pre-incubation time);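 for TbrCatL 0’ Inhibition: at 5 µM compound concentration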;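 for TbrCatL 10’ Inhibition: at 5 µM compound concentration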;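 for TbrCatL Inhibition 0’: at 5 µM compound concentration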;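 for TbrCatL Inhibition 10’: at 5 µM compound concentration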
T1 construct: Conor Caffrey (University of California San Diego)
T1 sequence (Q95PM0 entry or part of it): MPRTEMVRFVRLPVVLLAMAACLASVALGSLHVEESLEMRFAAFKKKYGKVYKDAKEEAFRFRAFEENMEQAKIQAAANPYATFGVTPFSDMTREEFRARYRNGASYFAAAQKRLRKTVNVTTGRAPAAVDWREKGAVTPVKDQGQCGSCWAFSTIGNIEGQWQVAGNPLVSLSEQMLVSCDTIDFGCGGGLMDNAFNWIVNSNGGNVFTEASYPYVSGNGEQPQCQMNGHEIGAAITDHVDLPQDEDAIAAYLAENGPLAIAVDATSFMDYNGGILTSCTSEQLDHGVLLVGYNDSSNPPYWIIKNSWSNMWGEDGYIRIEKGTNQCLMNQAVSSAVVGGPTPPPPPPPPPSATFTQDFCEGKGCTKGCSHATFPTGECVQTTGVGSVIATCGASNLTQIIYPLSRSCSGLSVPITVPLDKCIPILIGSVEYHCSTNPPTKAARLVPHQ
Procedure, shortened: as §1

For `O=C(NCc1nnc2n1CCCCC2)c1ccc(-c2ccc(F)cc2)o1` [MMV688796], the “Cruzain Inhibition 0’” value (cruzain) was 15%, the “Cruzain Inhibition 10’” value (cruzain) was 7% and the “TbrCatL Inhibition 0’” value (TbrCatL) was 7%. For the same compound, the “TbrCatL Inhibition 10’” value (TbrCatL) was -2.4%.

With `COc1cc(Br)cc2cc(C(=O)Nc3cccc(C(F)(F)F)c3)c(=O)oc12` [MMV688891] the “Cruzain 0’ Inhibition” value (cruzain; sheet "Screening results") was -4.4%, the “Cruzain 10’ Inhibition” value (cruzain; sheet "Screening results") was -0.7% and the “TbrCatL 0’ Inhibition” value (TbrCatL) was 0%. For the same compound, the “TbrCatL 10’ Inhibition” value (TbrCatL) was -2.6%.

In the case of `CO/C=C(\C(=O)OC)c1ccccc1Oc1cc(Oc2ccccc2C#N)ncn1` [MMV021057], the “Cruzain Inhibition 0’” value (cruzain) is reported as 1.6%, the “Cruzain Inhibition 10’” value (cruzain) is reported as 6.5% and the “TbrCatL Inhibition 0’” value (TbrCatL) is reported as 1.9%. The “TbrCatL Inhibition 10’” value (TbrCatL) was 9%.

`Cc1cccc(Cn2ccc(NC(=O)c3ccc4c(c3)OCO4)n2)c1` [MMV676386] was tested, and the “Cruzain Inhibition 0’” value (cruzain) was 8%, the “Cruzain Inhibition 10’” value (cruzain) was 2.6% and the “TbrCatL Inhibition 0’” value (TbrCatL) was 2.8%. The “TbrCatL Inhibition 10’” value (TbrCatL) was 1.8%.

In the case of `CC(C)(C)OC(=O)N1CCN(c2nccc(-c3ccc(-c4ccc(Cl)cc4)s3)n2)CC1` [MMV688416], the “Cruzain Inhibition 0’” value (cruzain) is reported as 18%, the “Cruzain Inhibition 10’” value (cruzain) is reported as 18% and the “TbrCatL Inhibition 0’” value (TbrCatL) is reported as 22%. The “TbrCatL Inhibition 10’” value (TbrCatL) was 27%.

With `Nc1ncnc2c1ncn2C[C@@H](O)[C@@H](O)C(=O)O` [MMV689255] the “Cruzain Inhibition 0’” value (cruzain) was 18%, the “Cruzain Inhibition 10’” value (cruzain) was 2% and the “TbrCatL Inhibition 0’” value (TbrCatL) was 3.4%. For the same compound, the “TbrCatL Inhibition 10’” value (TbrCatL) was -1.3%.

For `O=C1COCc2ccc(Br)cc2N1Cc1ccc(C(F)(F)F)cc1` [MMV032995], the “Cruzain 0’ Inhibition” value (cruzain; sheet "Screening results") was -5%, the “Cruzain 10’ Inhibition” value (cruzain; sheet "Screening results") was 0.2% and the “TbrCatL 0’ Inhibition” value (TbrCatL) was -7%. The “TbrCatL 10’ Inhibition” value (TbrCatL) was -7%.

For `O=C(Nc1ccc(F)c(-c2nc3ncc(-c4ccccc4)cc3[nH]2)c1)N1CCCC1` [MMV688372], the “Cruzain 0’ Inhibition” value (cruzain; sheet "Screening results") was 4%, the “Cruzain 10’ Inhibition” value (cruzain; sheet "Screening results") was 4.3% and the “TbrCatL 0’ Inhibition” value (TbrCatL) was -5%. For the same compound, the “TbrCatL 10’ Inhibition” value (TbrCatL) was -11%.

In the case of `CN(C)c1cc(NC(=O)Nc2ccccc2)c2ccccc2n1` [MMV006901], the “Cruzain Inhibition 0’” value (cruzain) is reported as 13%, the “Cruzain Inhibition 10’” value (cruzain) is reported as 24% and the “TbrCatL Inhibition 0’” value (TbrCatL) is reported as 9%. The “TbrCatL Inhibition 10’” value (TbrCatL) was 20%.

`CS(=O)(=O)N1CCC(CCn2nc(Cc3cccc4ccccc34)c3c(N)ncnc32)CC1` [MMV688470] was tested, and the “Cruzain Inhibition 0’” value (cruzain) was 10%, the “Cruzain Inhibition 10’” value (cruzain) was 11% and the “TbrCatL Inhibition 0’” value (TbrCatL) was 14%. The “TbrCatL Inhibition 10’” value (TbrCatL) was 9%.

In the case of `Cc1ccc(NC(=O)c2cc(S(=O)(=O)NC(C)(C)C)ccc2C)nc1` [MMV020289], the “Cruzain 0’ Inhibition” value (cruzain; sheet "Screening results") is reported as 1%, the “Cruzain 10’ Inhibition” value (cruzain; sheet "Screening results") is reported as 1.9% and the “TbrCatL 0’ Inhibition” value (TbrCatL) is reported as 1.9%. For the same compound, the “TbrCatL 10’ Inhibition” value (TbrCatL) was 1.3%.

`CCN(CC)CCCCCCNc1cc(OC)cc2c(C)ccnc12` [MMV000063] was tested, and the “Cruzain Inhibition 0’” value (cruzain) was 16%, the “Cruzain Inhibition 10’” value (cruzain) was 3% and the “TbrCatL Inhibition 0’” value (TbrCatL) was 2.7%. The “TbrCatL Inhibition 10’” value (TbrCatL) was 5.6%.

In the case of `COc1cc(OC)cc(C(=O)NCC2Cc3cc(Cl)cc(-c4ccncc4)c3O2)c1` (stereo not shown) [MMV007471], the “Cruzain 0’ Inhibition” value (cruzain; sheet "Screening results") is reported as 1.1%, the “Cruzain 10’ Inhibition” value (cruzain; sheet "Screening results") is reported as 6% and the “TbrCatL 0’ Inhibition” value (TbrCatL) is reported as 0.4%. For the same compound, the “TbrCatL 10’ Inhibition” value (TbrCatL) was -2%.

With `O=C(OCc1ccccc1)N1CCC(c2cc(-c3ccncc3)c(-c3ccc(F)cc3)[nH]2)CC1` [MMV688509] the “Cruzain 0’ Inhibition” value (cruzain; sheet "Screening results") was -3.8%, the “Cruzain 10’ Inhibition” value (cruzain; sheet "Screening results") was 3.8% and the “TbrCatL 0’ Inhibition” value (TbrCatL) was -13%. The “TbrCatL 10’ Inhibition” value (TbrCatL) was -13%.

For `NC(CC(=O)c1ccc(Cl)cc1Cl)C(Cl)(Cl)Cl` (stereo not shown) [MMV676468], the “Cruzain 0’ Inhibition” value (cruzain; sheet "Screening results") was 2.5%, the “Cruzain 10’ Inhibition” value (cruzain; sheet "Screening results") was 0.4% and the “TbrCatL 0’ Inhibition” value (TbrCatL) was -5%. The “TbrCatL 10’ Inhibition” value (TbrCatL) was -2%.

In the case of `O=C(NCCN1CCCC1)c1cc(NCCCCN2CCC(F)(F)CC2)nc2ccc(Cl)cc12` [MMV667494], the inhibition at 5 µM (cruzain; read-out: Cruzain 0’ Inhibition, 0’ (pre-incubation time), sheet "Screening results") is reported as 39%, the inhibition at 5 µM (cruzain; read-out: Cruzain 10’ Inhibition, 10’ (pre-incubation time), sheet "Screening results") is reported as 53% and the inhibition at 5 µM (cruzain; read-out: Inhibition at 5 µM (Mean ± SEM %) Cruzain 0′, 5 µM, no pre-incubation, initial screening) is reported as 40 ± 1%. For the same compound, the inhibition at 5 µM (cruzain; read-out: Inhibition at 5 µM (Mean ± SEM %) Cruzain 10′ inc, 5 µM, 10′ pre-incubation, initial screening) was 53 ± 1%, the inhibition at 100 µM (cruzain; read-out: Inhibition at 100 µM (Mean ± SEM %) Cruzain 0′, 100 µM, no pre-incubation, solid samples) was 0% and the inhibition at 100 µM (cruzain; read-out: Inhibition at 100 µM (Mean ± SEM %) Cruzain 10′ inc, 100 µM, 10′ pre-incubation, solid samples) was 70 ± 3%. It also gave an inhibition at 5 µM (cruzain; read-out: Inhibition of cruzain or TbrCatL (either enzyme) in the initial screening, 5 µM, either cruzain or TbrCatL, with or without pre-incubation) of no less than 60%, an inhibition at 5 µM (TbrCatL; read-out: Inhibition at 5 µM (Mean ± SEM %) TbrCatL 0′) of 31 ± 5% and an inhibition at 5 µM (TbrCatL; read-out: Inhibition at 5 µM (Mean ± SEM %) TbrCatL 10′ inc) of 73 ± 1%. For the same compound, the inhibition at 100 µM (TbrCatL; read-out: Inhibition at 100 µM (Mean ± SEM %) TbrCatL 0′) was 0%, the inhibition at 100 µM (TbrCatL; read-out: Inhibition at 100 µM (Mean ± SEM %) TbrCatL 10′ inc) was 11 ± 8% and the inhibition at 5 µM (TbrCatL; read-out: TbrCatL 0’ Inhibition) was 32%. It also gave an inhibition at 5 µM (TbrCatL; read-out: TbrCatL 10’ Inhibition) of 73%.

In the case of `CNC(=O)c1cc(S(=O)(=O)N2CCN(c3ccccn3)CC2)cs1` [MMV020136], the “Cruzain Inhibition 0’” value (cruzain) is reported as 5%, the “Cruzain Inhibition 10’” value (cruzain) is reported as 2% and the “TbrCatL Inhibition 0’” value (TbrCatL) is reported as -6.4%. For the same compound, the “TbrCatL Inhibition 10’” value (TbrCatL) was -5.6%.

`O=C(NC1CC1)c1ccc(CSCc2ccccc2Cl)o1` [MMV007803] was tested, and the “Cruzain 0’ Inhibition” value (cruzain; sheet "Screening results") was 0.3%, the “Cruzain 10’ Inhibition” value (cruzain; sheet "Screening results") was -1.7% and the “TbrCatL 0’ Inhibition” value (TbrCatL) was -6.5%. The “TbrCatL 10’ Inhibition” value (TbrCatL) was -0.2%.

In the case of `COc1ccc(-c2nnc3ccc(-c4cccc(C(C)C)c4)cn23)cc1OC` [MMV688313], the “Cruzain 0’ Inhibition” value (cruzain; sheet "Screening results") is reported as -16%, the “Cruzain 10’ Inhibition” value (cruzain; sheet "Screening results") is reported as -10% and the “TbrCatL 0’ Inhibition” value (TbrCatL) is reported as -19%. For the same compound, the “TbrCatL 10’ Inhibition” value (TbrCatL) was -27%.
